# Test results as given in patent publication US6858707B1, “Hypersensitive response elicitor fragments which are active but do not elicit a hypersensitive response” (EDEN Bioscience Corporation, priority 1998, dated 2005).
# “And” between values parts separate entries of the source, which are not always exact repeats. Equal entries are not always repeated.
# B1: hypersensitive response elicitor polypeptide or protein derived from Erwinia amylovora: elicitor from Erwinia amylovora, amino acid sequence SEQ ID NO: 23 (protein, listed as Erwinia amylovora)
# chain: MSLNTSGLGASTMQISIGGAGGNNGLLGTSRQNAGLGGNSALGLGGGNQNDTVNQLAGLLTGMMMMMSMMGGGGLMGGGLGGGLGNGLGGSGGLGEGLSNALNDMLGGSLNTLGSKGGNNTTSTTNSPLDQALGINSTSQNDDSTSGTDSTSDSSDPMQQLLKMFSEIMQSLFGDGQDGTQGSSSGGKQPTEGEQNAYKKGVTDALSGLMGNGLSQLLGNGGLGGGQGGNAGTGLDGSSLGGKGLQNLSGPVDYQQLGNAVGTGIGMKAGIQALNDIGTHRHSSTRSFVNKGDRAMAKEIGQFMDQYPEVFGKPQYQKGPGQEVKTDDKSWAKALSKPDDDGMTPASMEQFNKAKGMIKRPMAGDTGNGNLQARGAGGSSLGIDAMMAGDAINNMALGKLGAA
# B2: HrpZ Fragment 190-294: amino acids 190-294 of HrpZ (SEQ ID NO: 31), calmodulin-binding peptide fusion, crude preparation (protein, listed as Pseudomonas syringae)
# chain: DIIGQQLGNQQSDAGSLAGTGGGLGTPSSFSNNSSVMGDPLIDANTGPGDSGNTRGEAGQLIGELIDRGLQSVLAGGGLGTPVNTPQTGTSANGGQSAQDLDQLL
# modifications: calmodulin-binding peptide fusion
# Assays:
# [1] = tested on: tomato seeds (variety, Marglobe); test: 13 amino acid peptide: tomato seedling growth after seed soak; format: in vivo
# Method: The synthesized peptide was resuspended in 10 ml of 5 mM potassium phosphate buffer and, then, diluted to 1 and 100 ng/ml with the same buffer. About 100 tomato seeds (variety, Marglobe) were submerged in 20 ml of peptide solution overnight. The soaked seeds were planted in an 8 inch pot with artificial soil. Seeds soaked in the buffer without the peptide were used as a control. After seedlings emerged and the first two true leaves fully expanded, the height of the tomato seedlings was recorded.
# [2] = tested on: tobacco and other tested plants; test: 13 amino acid peptide: HR in tobacco and other tested plants; format: in vivo
# [3] = tested on: parsley cells; settings: H+/Ca2+ influxes, K+/Cl− effluxes, active oxygen production, SAR gene induction, phytoalexin accumulation; cited from earlier work
# [4] = tested on: tomato (Lycopersicon spp. cv. Marglobe); test: Induction of growth enhancement (GE/PGE), tomato seed soak; format: in vivo; settings: oligopeptides, Table 5; tomato height vs buffer
# Method: Sixty tomato (Lycopersicon spp. cv. […] The next morning, the sixty seeds were sewn in three pots and 12-15 days later and again 18-20 days later the heights of the 10 tallest tomato plants per pot were measured and compared with the heights of the control plants treated only with phosphate buffer. Analyses were done on the heights to determine if there was a significant difference in the height of the plants treated with the truncated proteins compared with the buffer control, and thereby determine whether the proteins induced growth enhancement.
# [5] = tested on: TMV; test: Induction of systemic acquired resistance (SAR), TMV lesions on tobacco; format: in vivo, Nicotiana tabacum; settings: oligopeptides, Table 5; reduction in TMV lesions vs buffer control
# [6] = cited from earlier work
# [7] = tested on: tobacco leaves; test: HR test of HrpZ fragment preparations in tobacco leaves; format: in vivo; set-up: key to HR elicitation: +, elicits HR in tobacco leaves; −, no HR in tobacco leaves
# Method: Amino acid fragments 152-294 and 190-294 were chosen for further analysis and characterization. It was expected that the fragment 152-294 contained a domain that elicited the HR, while fragment 190-294 contained no domain that elicited the HR. The cultures were spun down, and the bacteria resuspended in 40 ml of 10 mM Tris pH 8.0. Twenty μl of antifoam and 40 μl of 200 mM PMSF were added, and the bacteria was sonicated to break open the cells. The bacterial debris was removed by centrifugation, and the supernatant was placed in a boiling water bath for 10 min. The precipitate was removed by centrifugation and the supernatant, a crude protein preparation, was retained for tests.
# Fifteen μl of each supernatant was run on a gel and stained to determine if the protein was present. It was estimated that about five times as much of the 152-294 fragment was present as the 190-294 fragment. Several dilutions of each preparation were infiltrated into tobacco leaves on two plants for HR tests (Table 7).
# [8] = tested on: TMV; test: HrpZ fragments: induced resistance to TMV in tobacco; format: in vivo; settings: % reduction in TMV lesions in unsprayed leaf of tobacco; 152-294 preparation diluted 40-fold, 190-294 diluted 8-fold
# Method: (§1) The fragment preparations were then tested for inducing resistance to TMV and for growth enhancement. Due to the difference in concentration of the HrpZ fragments, the 152-294 preparation was diluted 40-fold and the 190-294 preparation was diluted 8-fold. […] In contrast, the 152-294 aa fragment reduced the number of TMV lesions by only 55%. As also shown in Table 8, plants treated with the 152-294 aa fragment grew 4.64% more than buffer treated plants, while plants treated with the 190-294 aa fragment grew 2.62% more than the buffer treated plants.
# [9] = tested on: tomato; test: HrpZ fragments: growth enhancement (PGE); format: in vivo; settings: % greater height than buffer sprayed plants; 152-294 preparation diluted 40-fold, 190-294 diluted 8-fold
# Method: To test whether non-HR eliciting fragments derived from HrpZ, the hypersensitive response elicitor from Pseudomonas syringae pv. syringae, is able to induce disease resistance, several fragment constructs were made and the expressed fragment proteins were tested for HR elicitation and disease resistance induction in tobacco and growth promotion in tomato.
# as §1
molecule,measurement,setting,value
"NH2-Val-Trp-Asn-Gln-Pro-Val-Arg-Gly-Phe-Lys-Val-Tyr-Glu-COOH (H-VWNQPVRGFKVYE-OH; listed as Phytophthora megasperma) [13 amino acid peptide, oligopeptide derived from the 42 kDa glycoprotein elicitor of Phytophthora megasperma]",% Change,"[1]; height increase vs buffer, 100 ng/ml peptide",12.6%
same,Height of seedlings (cm),"[1]; individual tomato seedlings, seeds soaked overnight in 100 ng/ml peptide, listed as Peptide Solution",6.5 cm (5×) and 6.0 cm (5×)
same,Average (cm),"[1]; mean seedling height, 100 ng/ml peptide",6.25 cm
same,HR elicitation,[2],not able to elicit the HR
same,defense response in parsley cells,[3],sufficient to elicit a complex defense response
"oligo 121-150: synthesized oligopeptide, amino acids 121-150 of SEQ ID NO: 23 (TTSTTNSPLDQALGINSTSQNDDSTSGTDS; listed as Erwinia amylovora)",PGE ht>buffer,[4],17.3%
same,TMV efficacy,[5],60.0%
"oligo 137-156: synthesized oligopeptide, amino acids 137-156 of SEQ ID NO: 23 (STSQNDDSTSGTDSTSDSSD; listed as Erwinia amylovora)",PGE ht>buffer,[4],7.4%
same,TMV efficacy,[5],−87.7%
"oligo 137-166: synthesized oligopeptide, amino acids 137-166 of SEQ ID NO: 23 (STSQNDDSTSGTDSTSDSSDPMQQLLKMFS; listed as Erwinia amylovora)",PGE ht>buffer,[4],12.0%
same,TMV efficacy,[5],61.2%
"oligo 150-179: synthesized oligopeptide, amino acids 150-179 of SEQ ID NO: 23 (STSDSSDPMQQLLKMFSEIMQSLFGDGQDG; listed as Erwinia amylovora)",PGE ht>buffer,[4],10.1%
same,TMV efficacy,[5],72.9%
B1,heat stable at 100° C. for,[6],at least 10 minutes
B2,HR elicitation (in words),[7]; dilutions infiltrated into tobacco leaves,did not
same,"HR test, dilution 1:2","[7]; preparation diluted 1:2 with MilliQ water, result for each of two plants","−,−"
same,"HR test, dilution 1:5","[7]; preparation diluted 1:5 with MilliQ water, result for each of two plants","−,−"
same,"HR test, dilution 1:25","[7]; preparation diluted 1:25 with MilliQ water, result for each of two plants","−,−"
same,"HR test, dilution 1:125","[7]; preparation diluted 1:125 with MilliQ water, result for each of two plants","−,−"
same,HR elicitation,[7]; tobacco leaves,−
same,TMV (% efficacy),[8],85% and 85.25%
same,PGE(% > buffer ht),[9],2.62%
